Assays:
Type in all cases: cell-based, human
H292 cells = assay: Cell-Titer Glo cell viability / growth inhibition; details: H292 NSCLC cell line
Protocol: (§1) The NSCLC lines with IGF-1R, H292, H358, H322, H441, A549, Calu6, H460, H1703 and SW1573 were cultured in the appropriate ATCC recommended supplemented media. Cell extracts were prepared by detergent lysis ((50 mM Tris-HCl, pH8, 150 mM NaCl, 1% NP-40, 0.5% NaDeoxycholate, 0.1% SDS) containing protease and phosphatase inhibitors. The soluble protein concentration was determined by micro-BSA assay (Pierce, Rockford Ill.).
(§2) IGF-1R inhibitor Compound 66 (i.e. 3-(3-Azetidin-1-ylmethyl-cyclobutyl)-1-(2-phenyl-quinolin-7-yl)-imidazo[1,5-a]pyrazin-8-ylamine; see structure below) stock concentration was 10 mM in 100% DMSO (dimethyl sulfoxide). Serial dilutions (1:3 or 1:4) were used to establish the 50% inhibitory dose of IGF-1R inhibitor. Before dosing, inhibitor was diluted in 100% DMSO, and then added to the cells at desired final concentrations in duplicates. The final DMSO concentration was between 0.3-0.5%. Compound 66 was synthesized by the methods described in published International patent application number WO 2005/097800 A1.
(§3) For measuring cell viability, Cell-Titer Glo assay was used, which is available as a kit from Promega. The basis of the assay is a luminescent quantitation of ATP present in a cell culture plate well. In essence, the greater the number of viable cells in the well, the greater the level of ATP present. The assay utilizes a substrate that binds ATP to produce a luminescent signal, which can be read on a luminometer. Unless otherwise noted, the manufacturer's instructions were followed exactly. Briefly, on Day 1, cells were plated in 120 μl of 10% serum-containing growth media at a density of 4000 cells/well in a white polystyrene 96 well assay plate. On day 2, cells were treated with 15 μl of 10× concentration of the IGF-1R inhibitor (e.g. Compound 66, PQIP) or DMSO alone for a final well volume of […]. After 72 h incubation with the inhibitor, the cells were assayed. Results were calculated as a fraction of the DMSO controlled cells.

SW1573 cells = assay: Cell-Titer Glo cell viability / growth inhibition; details: SW1573 NSCLC cell line
Protocol: as §1, §2, §3

H358 cells = assay: Cell-Titer Glo cell viability / growth inhibition; details: H358 NSCLC cell line
Protocol: as §1, §2, §3

H460 cells = assay: Cell-Titer Glo cell viability / growth inhibition; details: H460 NSCLC cell line
Protocol: as §1, §2, §3

A549 cells = assay: Cell-Titer Glo cell viability / growth inhibition; details: A549 NSCLC cell line
Protocol: as §1, §2, §3

H441 cells = assay: Cell-Titer Glo cell viability / growth inhibition; details: H441 NSCLC cell line
Protocol: as §1, §2, §3

[1] = test system: panel comprised of 28 tumor cell lines (colorectal, breast, pancreatic, NSCLC, head and neck); assay: Cell-Titer Glo growth inhibition, tumor cell line panel
Protocol: The effect of 3 μM PQIP on cell growth for a panel of 26 tumor cell lines is shown. The EMT status for the cell lines is indicated, and those tumor cell lines which harbor a known activating mutation in PI3K are marked by a *. EMT status is defined here according to the transcriptional activity of CDH1, the gene encoding E-Cadherin, indicated by either the methylation status of the CDH1 promoter or the presence of CDH1 gene transcriptional repressor proteins (e.g. Snail, Zeb1). Methylation or high levels of transcriptional repressors is associated with silencing of CDH1, and is thus an indicator of a mesenchymal cell. Cell growth was measured using Cell Titer Glo (Promega), and measurements were taken 72 hours after dosing. Data are expressed as % of maximal tumor growth inhibition and are representative of three or more independent experiments. […]
For measuring cell viability, Cell-Titer Glo assay was used, which is available as a kit from Promega. The basis of the assay is a luminescent quantitation of ATP present in a cell culture plate well. […] The assay utilizes a substrate that binds ATP to produce a luminescent signal, which can be read on a luminometer. […] Results were calculated as a fraction of the DMSO controlled cells.

Compound | sensitivity to Compound 66-mediated growth inhibition (H292 cells) | sensitivity to Compound 66-mediated growth inhibition (SW1573 cells) | sensitivity to Compound 66-mediated growth inhibition (H358 cells) | sensitivity to Compound 66-mediated growth inhibition (H460 cells) | sensitivity to Compound 66-mediated growth inhibition (A549 cells) | sensitivity to Compound 66-mediated growth inhibition (H441 cells) | inhibition at 3 µM ([1]; Homo sapiens, 3 μM PQIP, any mesenchymal tumor cell line in the panel) | dose dependence of growth inhibition ([1]; varying concentrations of PQIP, all cell lines (data not shown))
Nc1nccn2c1c(-c1ccc3ccc(-c4ccccc4)nc3c1)nc2[C@H]1C[C@@H](CN2CCC2)C1 [Compound 66, 3-(3-Azetidin-1-ylmethyl-cyclobutyl)-1-(2-phenyl-quinolin-7-yl)-imidazo[1,5-a]pyrazin-8-ylamine] | sensitive | relatively insensitive | sensitive | relatively insensitive | intermediate sensitivity | sensitive | – | –
CN1CCN([C@H]2C[C@@H](c3nc(-c4ccc5ccc(-c6ccccc6)nc5c4)c4c(N)nccn43)C2)CC1 [PQIP, cis-3-[3-(4-Methyl-piperazin-1-yl)-cyclobutyl]1-(2-phenyl-quinolin-7-yl)-imidazo[1,5-a]pyrazin-8-ylamine] | – | – | – | – | – | – | ≤ 50% | dose-dependent

Reference: patent US8048621B2, “Biological markers predictive of anti-cancer response to insulin-like growth factor-1 receptor kinase inhibitors” (OSI Pharmaceuticals, LLC, priority 2007, dated 2011)
